From ChEMBL document CHEMBL1145110, “Oxidosqualene cyclase inhibitors as antimicrobial agents” (J Med Chem, 2003)
pEC50, pIC50: −log10 of the molar value.

Experiments:
[1] = test system: Leishmania mexicana; experiment: Tested for inhibition of growth of Leishmania mexicana in a pathogen cell culture assay; assay type: functional; details: read-out: ED50 (the source's name)
[2] = test system: Toxoplasma gondii; experiment: Tested for inhibition of growth of Toxoplasma gondii in a pathogen cell culture assay, at a concentration of 10 uM; assay type: functional
[3] = test system: NIH3T3; experiment: Tested for inhibition of growth of NIH3T3 cells a in a pathogen cell culture assay; assay type: functional; details: Mus musculus, read-out: ED50 (the source's name)
[4] = test system: Trypanosoma cruzi; experiment: Tested for inhibition of growth of Trypanosoma cruzi in a pathogen cell culture assay; assay type: functional; details: read-out: ED50 (the source's name)
[5] = test system: Trypanosoma brucei; experiment: Tested for inhibition of growth of Trypanosoma brucei in a pathogen cell culture assay; assay type: functional; details: read-out: ED50 (the source's name)
[6] = biological target: T1, Lanosterol synthase (Rattus norvegicus, UniProt P48450); experiment: Tested for Oxidosqualene-lanosterol cyclase inhibition in rat
T1 sequence (P48450 whole entry): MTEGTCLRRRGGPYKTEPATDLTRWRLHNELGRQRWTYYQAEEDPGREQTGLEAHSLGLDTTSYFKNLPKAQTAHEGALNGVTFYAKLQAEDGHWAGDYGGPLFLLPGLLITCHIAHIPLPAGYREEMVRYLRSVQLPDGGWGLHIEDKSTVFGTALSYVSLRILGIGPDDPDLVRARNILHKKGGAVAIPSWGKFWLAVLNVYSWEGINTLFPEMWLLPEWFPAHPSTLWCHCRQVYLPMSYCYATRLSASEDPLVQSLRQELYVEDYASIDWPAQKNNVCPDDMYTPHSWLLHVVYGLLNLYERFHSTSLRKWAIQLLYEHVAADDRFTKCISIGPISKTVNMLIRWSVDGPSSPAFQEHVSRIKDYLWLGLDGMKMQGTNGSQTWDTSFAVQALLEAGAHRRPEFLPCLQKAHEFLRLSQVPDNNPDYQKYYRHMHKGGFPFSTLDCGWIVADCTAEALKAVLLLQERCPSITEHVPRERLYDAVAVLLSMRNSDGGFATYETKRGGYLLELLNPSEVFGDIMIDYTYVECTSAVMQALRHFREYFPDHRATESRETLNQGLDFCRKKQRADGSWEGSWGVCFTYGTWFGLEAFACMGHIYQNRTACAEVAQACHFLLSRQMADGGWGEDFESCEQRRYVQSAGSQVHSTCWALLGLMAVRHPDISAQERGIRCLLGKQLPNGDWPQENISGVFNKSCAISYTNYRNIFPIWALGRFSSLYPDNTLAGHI

[7] = test system: Pneumocystis carinii; experiment: Tested for inhibition of growth of Pneumocystis carinii in a pathogen cell culture assay, at a concentration of 10 uM; assay type: functional
[8] = test system: Toxoplasma gondii; experiment: Tested for inhibition of growth Toxoplasma gondii in a pathogen cell culture assay, at a concentration of 10 uM; assay type: functional
[9] = test system: Leishmania mexicana; experiment: Tested for inhibition of growth Leishmania mexicana in a pathogen cell culture assay; assay type: functional; details: read-out: ED50 (the source's name)
[10] = test system: Trypanosoma cruzi; experiment: Tested for inhibition of growth Trypanosoma cruzi in a pathogen cell culture assay; assay type: functional; details: read-out: ED50 (the source's name)
[11] = test system: Pneumocystis carinii; experiment: Tested for inhibition of growth Pneumocystis carinii in a pathogen cell culture assay, at a concentration of 10 uM; assay type: functional
[12] = test system: Trypanosoma brucei; experiment: Tested for inhibition of growth Trypanosoma brucei in a pathogen cell culture assay; assay type: functional; details: read-out: ED50 (the source's name)

| SMILES | pIC50 [6] | pEC50 [10] | pEC50 [12] | pEC50 [1] | inhibition at 10 µM [2] | pEC50 [3] | pEC50 [4] | pEC50 [5] | inhibition at 10 µM [7] | inhibition at 10 µM [8] | pEC50 [9] | inhibition at 10 µM [11] |
| --- | --- | --- | --- | --- | --- | --- | --- | --- | --- | --- | --- | --- |
| O=C(c1ccc(Cl)cc1)c1ccc(OC2CN3CCC2CC3)cc1 (centres undefined) | 6.80 | – | – | 6.40 | 48% | < 5.00 | 6.00 | < 5.00 | 81% | – | – | – |
| CCN(CC)CCOc1ccc(-c2ccccc2)cc1 | – | < 5.00 | < 5.00 | – | – | < 5.00 | – | – | – | < 1% | 5.00 | 95% |
| C=CCN(C)CCCCCCOc1ccc(C(=O)c2ccc(Cl)cc2)c(F)c1 | 7.31 | – | – | – | – | – | – | – | – | – | – | – |
| CN(C)CCCOc1ccc(-c2ccccc2)cc1 | 5.60 | 6.00 | < 5.00 | – | – | < 5.00 | – | – | – | 17% | 6.40 | 95% |
| OCCN1CCN(CCOc2ccc(-c3ccccc3)cc2)CC1 | – | 6.00 | < 5.00 | – | – | < 5.00 | – | – | – | 28% | 6.40 | 95% |

Further compounds by rising pEC50 [10], results first:

| pIC50 [6] | pEC50 [10] | pEC50 [12] | SMILES | pEC50 [1] | inhibition at 10 µM [2] | pEC50 [3] | pEC50 [4] | pEC50 [5] | inhibition at 10 µM [7] | inhibition at 10 µM [8] | pEC50 [9] | inhibition at 10 µM [11] |
| --- | --- | --- | --- | --- | --- | --- | --- | --- | --- | --- | --- | --- |
| – | 6.00 | < 5.00 | CN(C)CCCOc1ccc(C(=O)c2ccc(Cl)cc2)cc1 | – | – | < 5.00 | – | – | – | 17% | 6.40 | 95% |
| – | 6.00 | < 5.00 | O=C(c1ccc(Cl)cc1)c1ccc(OCCN2CCN(CCO)CC2)cc1 | – | – | < 5.00 | – | – | – | 28% | 6.40 | 95% |
